Results on six molecules are retold here after patent US5114919A, “Adjuncts in cancer chemotherapy” (Merck & Co., Inc., priority 1991, dated 1992).

The test system of experiment [1] is KB-V-1 drug-resistant cell line. The experiment in a line: [3H]vinblastine accumulation assay in KB-V-1 drug-resistant cells. Conditions: for Accumulation of [3H]vinblastine, KB-V-1, drug preincubated (60 min): Table 2. It counts as cell-based, human. From the text:
(§1) Radiolabelled compounds may also be utilized to determine the accumulation of antitumor chemotherapeutic agents in drug sensitive cells and in multidrug resistant cells. For example, the accumulation of [^3 H]vinblastine by drug sensitive cell lines and drug resistant cell lines in the presence or absence of a test compound may be determined. The relative accumulation of the radiolabelled chemotherapeutic agent is indicative of the ability of a compound to reverse multidrug resistance.
(§2) Drug Accumulation: Measurement of the accumulation of [^3 H] vinblastine in a KB-3 drug-sensitive cell line and a KB-V-1 drug-resistantcell line was performed at 37° C. in serum-free medium (DMEM). Cell monolayers were grown in 24 well dishes. [^3 H] vinblastine and different compounds (20 μM) were added to cells incubated for 30 minutes, monolayers were washed later, and drug accumulation per mg protein was assayed.

Experiment [2] concerns KB-3 drug-sensitive cell line. The experiment in a line: [3H]vinblastine accumulation assay in KB-3 drug-sensitive cells. It counts as cell-based, human. Conditions: 37° C., serum-free DMEM; for Accumulation of [3H]vinblastine, KB-3: Table 1, compound 20 μM, 30 minutes; for Accumulation of [3H]vinblastine, KB-3, drug preincubated (60 min): Table 2, drug preincubated 60 min, compound 20 μM.
Source text: as §1, §2

Setting [3] is: compound 20 μM, 37° C., serum-free DMEM, drug-resistant cells.
The mark [4] stands for this setting: Table 1, compound 20 μM, 30 minutes, 37° C., serum-free DMEM, drug-resistant cells.

With `COc1cc(C(=O)NCc2ccc3c(c2)C(=C2CCN(C)CC2)c2ccccc2C=C3)cc(OC)c1OC` [3,4,5-Trimethoxy-N-((5-(1-methyl-4-piperidinylidene)-5H-dibenzo[a,d]cyclohepten-3-yl)methyl)benzamide], the “Accumulation of [3H]vinblastine, KB-V-1” value in experiment [1] (20 µM) is listed as 3.31 ± 0.25 pmole/mg protein. Further, the “Accumulation of [3H]vinblastine, KB-V-1, drug preincubated (60 min)” value in experiment [1] (setting [3]) came out at 3.57 ± 0.16 pmole/mg protein. Further, in experiment [2], the “Accumulation of [3H]vinblastine, KB-3” value worked out at 8.15 ± 0.44 pmole/mg protein and the “Accumulation of [3H]vinblastine, KB-3, drug preincubated (60 min)” value was 3.67 ± 0.32 pmole/mg protein.
For the molecule `COc1ccc(CCN(C)CCCC(C#N)(c2ccc(OC)c(OC)c2)C(C)C)cc1OC` (stereo not drawn) [Verapamil, reference compound], the “Accumulation of [3H]vinblastine, KB-V-1” value in experiment [1] (setting [4]) turned out to be 2.21 ± 0.18 pmole/mg protein. In addition, the “Accumulation of [3H]vinblastine, KB-V-1, drug preincubated (60 min)” value in experiment [1] (setting [3]) was 2.36 ± 0.21 pmole/mg protein. Also, in experiment [2], the “Accumulation of [3H]vinblastine, KB-3” value is 4.65 ± 0.13 pmole/mg protein and the “Accumulation of [3H]vinblastine, KB-3, drug preincubated (60 min)” value is 4.71 ± 0.25 pmole/mg protein.
For `CCOC(=O)C1=C(C)NC(C)=C(C(=O)OCC)C1c1ccc2c(c1)C(=C1CCN(C)CC1)c1ccccc1C=C2` [Diethyl 1,4-dihydro-2,6-dimethyl-4-(5-(1-methyl-4-piperidinylidene)-5H-dibenzo[a,d]cyclohepten-3-yl)pyridine dicarboxylate], in experiment [1] (setting [4]), the “Accumulation of [3H]vinblastine, KB-V-1” value stood at 2.13 ± 0.15 pmole/mg protein. Also, the “Accumulation of [3H]vinblastine, KB-3” value in experiment [2] is reported as 3.32 ± 0.09 pmole/mg protein.
Regarding `Ic1ccc2c(c1)C(=C1CCN(CC3CC3)CC1)c1ccccc1C=C2` [(+)-1-cyclopropylmethyl-4-(3-iodo-5H-dibenzo[a,d]cyclohepten-5-ylidene)piperidine], the “Accumulation of [3H]vinblastine, KB-V-1” value in experiment [1] (setting [4]) was 2.91 ± 0.25 pmole/mg protein. Besides, the “Accumulation of [3H]vinblastine, KB-3” value in experiment [2] is 7.35 ± 0.18 pmole/mg protein.
Take `COc1cc(N)c(Cl)cc1C(=O)NCc1ccc2c(c1)C(=C1CCN(C)CC1)c1ccccc1C=C2` [4-Amino-5-chloro-2-methoxy-N-((5-(1-methyl-4-piperidinylidene)-5H-dibenzo[a,d]cyclohepten-3-yl)methyl)benzamide]: in experiment [1] (setting [4]), the “Accumulation of [3H]vinblastine, KB-V-1” value worked out at 3.47 ± 0.26 pmole/mg protein. In addition, in experiment [2], the “Accumulation of [3H]vinblastine, KB-3” value worked out at 3.47 ± 0.15 pmole/mg protein.
As for `FC(F)(F)Sc1ccc2c(c1)C(=C1CCN(CC3CC3)CC1)c1ccccc1C=C2` [(-)-1-cyclopropylmethyl-4-(3-trifluoromethylthio-5H-dibenzo[a,d]cyclohepten-5-ylidene)piperidine], in experiment [1] (setting [4]), the “Accumulation of [3H]vinblastine, KB-V-1” value came out at 0.91 ± 0.04 pmole/mg protein. The “Accumulation of [3H]vinblastine, KB-V-1, drug preincubated (60 min)” value in experiment [1] (setting [3]) amounted to 1.85 ± 0.11 pmole/mg protein. In addition, in experiment [2], the “Accumulation of [3H]vinblastine, KB-3” value was 11.65 ± 0.11 pmole/mg protein and the “Accumulation of [3H]vinblastine, KB-3, drug preincubated (60 min)” value turned out to be 10.16 ± 0.41 pmole/mg protein.
